{"source": "patent US20230338534A1", "about": "“METHOD” (AUTOLUS LIMITED, priority 2020, published 2023)", "system": "RQR8+ cells expressing TRBC2 CAR alone", "assay": "Tacrolimus effect on proliferation of CAR-T cells in 4 day co-culture", "format": "cell-based", "settings": "20 ng/ml; 4 days co-culture with TRBC2+ targets", "experimental": "In a similar study, cells transduced to express either TRBC2 CAR alone or TRBC2 CAR in combination with a calcineurin mutant (CnB30) were co-cultured for 4 days with TRBC2+ positive targets in the presence or absence of 20 ng/ml of Tacrolimus. […] This was true for cells expressing TRBC2 CAR alone or co-expressing TRBC2 CAR in combination with the calcineurin mutant."}
{"smiles": "C=CC[C@@H]1/C=C(\\C)C[C@H](C)C[C@H](OC)[C@H]2O[C@@](O)(C(=O)C(=O)N3CCCC[C@H]3C(=O)O[C@H](/C(C)=C/[C@@H]3CC[C@@H](O)[C@H](OC)C3)[C@H](C)[C@@H](O)CC1=O)[C@H](C)C[C@@H]2OC", "note": "[Tacrolimus, tacrolimus]", "values": [{"measurement": "effect on proliferation of cells expressing TRBC2 CAR alone", "value": "inhibits proliferation"}]}
